Source: patent US10105362B2, “Anti-tumor use of anagrelide and derivatives thereof” (SHANGHAI INSTITUTE OF MATERIA MEDICA, CHINESE ACADEMY OF …, priority 2013, dated 2018)
Entries after “also recorded” stand apart in the source; their conditions may differ.

Legend:
H4 cells [1] = experiment: MTT colorimetry, tumor cell growth/viability; assay type: cell-based, human; conditions: 1 μM, 72 hours
Experimental: (§1) Logarithmic growth phase cells were seeded in 96-well culture plate in appropriate density (100 μl in each well). After overnight cultivation, different concentrations of drugs were added and treated for 72 h, while three wells were set for each concentration. After treatment was completed, 20 μl/well of MTT (5 mg/ml in PBS) was added to each well and affected for 3-5 hours, the medium was suctioned out completely and 100 ul/well of DMSO was added, oscillated on decolorization shaker in dark place for 10 minutes until the Blue purple crystals formazan (formazan) was completely dissolved, the OD (Optical Density) value was detected with a microplate reader (detection wavelength: […]; reference wavelength: 650 nM). In blank group, culture medium only added without cells, and in control group, DMSO in the same volume as that for drug was added. Cell viability was calculated=(OD value of experimental group−OD value of control group)/(OD value of control group−OD value of blank group). Tumor cells from different tissue source were selected, and the concentration of Anagrelide was 1 μM and 50 μM, OD value was MTT detected after administrated for 72 hours, and the cell viability was calculated using cell viability=(administered group OD-blank group OD)/(control group OD-blank group OD)*100%, and was mapped by using GraphPadPrism 4 software. IC50 values on this seven cell lines of Anagrelide were detect by MTT method, and all of them are less than 100 nM (Table 2).

HeLa cells [2] = experiment: MTT colorimetry, tumor cell growth/viability; assay type: cell-based, human; conditions: 1 μM, 72 hours
Experimental: as §1

FHCC98 cells [3] = experiment: MTT colorimetry, tumor cell growth/viability; assay type: cell-based, human; conditions: 1 μM, 72 hours
Experimental: as §1

SMMC7721 cells [4] = experiment: MTT colorimetry, tumor cell growth/viability; assay type: cell-based, human; conditions: 1 μM, 72 hours
Experimental: as §1

SW1116 cells [5] = experiment: MTT colorimetry, tumor cell growth/viability; assay type: cell-based, human; conditions: 1 μM, 72 hours
Experimental: as §1

[6] = tested on: human H4 transplantation tumor; experiment: Human H4 transplantation tumor in nude mice, tumor growth; assay type: in vivo, BALB/c naked mouse; conditions: for anti-tumor effect (tumor volume, tumor growth): 21 days, vs vehicle control; for tumor weight: end of the experiment (day 21)
Experimental: Under aseptic conditions, tumor cells in the proliferation stage were taken. The cell concentration was adjusted after digestion, seeded at right armpit of nude mice, and the inoculated volume was 0.1 mL. Tumor diameter was measured with vernier caliper, after the tumor was grown to 200-300 mm^3, the tumor-bearing mice were selected, and randomly divided into 3 groups (n=4) according to the size of the tumors: negative control group, Anagrelide I (10 mg/kg), Anagrelide II (30 mg/kg). Each group was intragastric administrated, the day of administration was recorded as d1, the negative control group was given same amount of vehicle, and then the long and short diameters of tumor were measured twice a week, while the body weights of mice were weighed. At the 21th day of the administration, the animals were sacrificed and the tumor was dissected and weighed. Before the animals were sacrificed, eyeball was taken for blood sample, the number of white blood cell (WBC), red blood cell (RBC), concentration of hemoglobin (Hb) and number of platelet (PLT) were measured.

H4 cells [7] = experiment: RTCA real-time monitoring of cell growth; assay type: cell-based, human; conditions: 100 nM, within 72 hours
Experimental: (§2) A real-time monitor from Roche was used to detect growth of cells. […] Logarithmic growth phase cells were digested with trypsin, centrifuged and resuspended, and were seeded at 3.5×10^4 /mL per well in 16-well plate matching to cell supporting real-time monitor, and the compound was dosed after 37° C. overnight incubation. Real-time monitoring was used to automatically detect the status of cell growth, and the cell number was reflected by the size of the resistance formed after cell spreading. The larger the cell index value, the faster the cell growth, and the more the number of cells. To further examine Anagrelide inhibition of cell growth, Hela, H4, FHCC98, SMMC7721, BEL7404, A498, SW1116 were taken for further experiment. Through cell real-time monitoring device, real-time monitoring of cell growth status change within 72 hours after Anagrelide administration was conducted (FIG. 3). 3000 cells/100 uL were plated, cultivated overnight, and 100 nM Anagrelide was added. The growth of cells was detected with real-time monitor.

HeLa cells [8] = experiment: RTCA real-time monitoring of cell growth; assay type: cell-based, human; conditions: 100 nM, within 72 hours
Experimental: as §2

FHCC98 cells [9] = experiment: RTCA real-time monitoring of cell growth; assay type: cell-based, human; conditions: 100 nM, within 72 hours
Experimental: as §2

A498 cells = experiment: RTCA real-time monitoring of cell growth; assay type: cell-based, human; conditions: 100 nM, within 72 hours
Experimental: as §2

Bel7404 cells = experiment: RTCA real-time monitoring of cell growth; assay type: cell-based, human; conditions: 100 nM, within 72 hours
Experimental: as §2

SMMC7721 cells [10] = experiment: RTCA real-time monitoring of cell growth; assay type: cell-based, human; conditions: 100 nM, within 72 hours
Experimental: as §2

SW1116 cells [11] = experiment: RTCA real-time monitoring of cell growth; assay type: cell-based, human; conditions: 100 nM, within 72 hours
Experimental: as §2

non-sensitive cell lines = experiment: Growth inhibition of non-sensitive cell lines (summary statement); assay type: cell-based; conditions: concentration raised up to 1 mM/L
[12] = tested on: PARP cleavage in H4 cells; experiment: PARP cleavage by Western Blotting (apoptosis); assay type: cell-based, human; conditions: 100 nM, different time points
Description: (§3) 1) Vertical electrophoretic separation of proteins: 8%-10% SDS-polyacrylamide (SDA-PAGE) gel electrophoresis separation, 5% stacking gel. The voltage for stacking gel was 80V, separation gel separation voltage for separating gel was 120V, and electrophoresis was stopped when bromophenol blue indicator ran to the bottom; 2) membrane transferring: semi-dry transferring: transmembrane voltage was 10-15V, and the time was adjusted according to the size of the protein; 3) pre-stained with Ponceau to observe transmembrane effect; 4) blocking: It was blocked with 5% skim milk in TBST and oscillated on Decolorization shaker at room temperature for 1 hour; 5) the binding with first antibody: The antibody was diluted at 1: 2000 to 1: 10000 in TBST containing 5% BSA, oscillated on decolorization shaker 1 hour under room temperature for binding, and placed at 4° C. overnight. TBST was used to wash for three times, and 10 minutes for each time. 6) the binding with secondary antibody: The antibody was diluted at 1:5000 to 1:10000 in TBST containing 5% BSA, and oscillated on decolorization shaker 1 hour for binding under room temperature. TBST was used to wash for three times, and 10 minutes for each time. ECL developing kit was used to treat substrate for 2-3 minutes, detected for chemiluminescence, and exposed on X-ray film. […] The PARP cleavage was detected by Western Blotting.

[13] = tested on: PARP cleavage in FHCC 98 cells; experiment: PARP cleavage by Western Blotting (apoptosis); assay type: cell-based, human; conditions: 100 nM, different time points
Description: as §3

[14] = animal experiments, Fleming and Buyniski 1979; cited from earlier work

Question: With `O=C1CN2Cc3c(ccc(Cl)c3Cl)N=C2N1` [Anagrelide, 6,7-dichloro-1,5-dihydro-imidazo [2,1-b] quinazolin-2 (3H)-one] as the molecule, how does the “inhibition of cell growth” value (H4 cells [1]) read?
Answer: The value was “significantly inhibited growth”.

Question: And the “inhibition of cell growth” value (HeLa cells [2])?
Answer: The value was “significantly inhibited growth”.

Question: What about the “inhibition of cell growth” value (FHCC98 cells [3]) of the same molecule?
Answer: The value was “significantly inhibited growth”.

Question: What about the “inhibition of cell growth” value (SMMC7721 cells [4]) of the same molecule?
Answer: The value was “significantly inhibited growth”.

Question: And the “inhibition of cell growth” value (SW1116 cells [5])?
Answer: The value was “significantly inhibited growth”.

Question: And the “anti-tumor effect (tumor volume, tumor growth)” value ([6]; 10 mg/kg intragastric)?
Answer: The value was “significant anti-tumor effect”.

Question: What about the tumor weight ([6]; 10 mg/kg intragastric) of the same molecule?
Answer: Its tumor weight is “significantly lower than that of the vehicle control group”.

Question: What about the “anti-tumor effect (tumor volume, tumor growth)” value ([6]; 30 mg/kg intragastric) of the same molecule?
Answer: The value was “significant anti-tumor effect”.

Question: What about the tumor weight ([6]; 30 mg/kg intragastric) of the same molecule?
Answer: The tumor weight was “significantly lower than that of the vehicle control group; also recorded: less than that of Anagrelide I (10 mg/kg) group”.

Question: And the “cell growth status, real-time monitoring” value (H4 cells [7])?
Answer: Its value is “ultimately induced the cell death”.

Question: And the “cell growth status, real-time monitoring” value (HeLa cells [8])?
Answer: The value was “ultimately induced the cell death”.

Question: What about the “cell growth status, real-time monitoring” value (FHCC98 cells [9]) of the same molecule?
Answer: Its value is “ultimately induced the cell death”.

Question: What about the “cell growth status, real-time monitoring” value (A498 cells) of the same molecule?
Answer: Its value is “did not cause the cell apoptosis within 72 hours, but the growth was suppressed”.

Question: What about the “cell growth status, real-time monitoring” value (Bel7404 cells) of the same molecule?
Answer: The value was “did not cause the cell apoptosis within 72 hours, but the growth was suppressed”.

Question: And the “cell growth status, real-time monitoring” value (SMMC7721 cells [10])?
Answer: The value was “ultimately induced the cell death”.

Question: And the “cell growth status, real-time monitoring” value (SW1116 cells [11])?
Answer: The value was “did not cause the cell apoptosis within 72 hours, but the growth was suppressed”.

Question: What about the “growth inhibition of non-sensitive cell lines” value (non-sensitive cell lines) of the same molecule?
Answer: Its value is “does not have any growth inhibition effect”.

Question: And the PARP cleavage [12]?
Answer: The PARP cleavage was “PARP cleavage was gradually increased with time”.

Question: What about the PARP cleavage [13] of the same molecule?
Answer: The PARP cleavage was “PARP cleavage was gradually increased with time”.

Question: And the anti-thrombotic function [14]?
Answer: The anti-thrombotic function was “significant anti-thrombotic function”.
